# Measured values reported in US9029386B2, “Pyridine derivatives useful as kinase inhibitors” (YM Biosciences Australia Pty Ltd, priority 2006, dated 2015).
# Assays:
# [1] = target: T1, kinase domain of human CSF1-R (Homo sapiens, UniProt P07333); assay: Alphascreen protein tyrosine kinase assay, CSF-1R; format: biochemical
# T1 construct: from codon I553 to Q961; made in house; host or cells: Sf9 insect cells (baculovirus)
# T1 sequence (P07333 553-961): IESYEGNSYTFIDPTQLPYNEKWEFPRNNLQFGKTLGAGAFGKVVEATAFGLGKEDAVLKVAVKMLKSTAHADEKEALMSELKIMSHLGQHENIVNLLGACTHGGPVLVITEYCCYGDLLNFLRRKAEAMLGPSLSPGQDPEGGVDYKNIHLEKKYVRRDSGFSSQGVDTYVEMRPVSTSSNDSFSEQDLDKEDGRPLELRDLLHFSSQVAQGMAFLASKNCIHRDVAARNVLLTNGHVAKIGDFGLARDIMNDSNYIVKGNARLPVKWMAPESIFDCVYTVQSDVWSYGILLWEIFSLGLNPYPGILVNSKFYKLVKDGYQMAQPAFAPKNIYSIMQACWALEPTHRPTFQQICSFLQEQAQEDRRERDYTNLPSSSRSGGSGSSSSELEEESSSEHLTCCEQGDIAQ
# Procedure: For screening purposes, compounds were diluted in 96 well plates at a concentration of 20 μM. Plates were warmed at 37° C. for 30 minutes before assay.
# The kinase domain of human CSF1-R from codon I553 to Q961 was cloned into the pDEST-20 expression vector (Invitrogen). The CSF1-R plasmid was then transformed into competent DH10Bac cells (Gibco), and the recombinant baculovirus produced prepared for transfection into Sf9 insect cells.
# Baculovirus preparations from each of construct were infected into five liters of SF9 cells (Invitrogen) grown in SF-900 medium (Invitrogen) to a cell density of approximately 1−2×10^6 cells/ml. […] Cells were harvested and lysed. Tyrosine kinase domains were purified by affinity chromatography on a glutathione-agarose column (Scientifix Pty. Ltd. catalog #: GSH-200).
# Kinase assays were performed in 384 well Optiplates (Packard) using an Alphascreen Protein Tyrosine Kinase kit. […] Alphascreen phosphotyrosine acceptor beads followed by streptavidin donor beads were added under subdued light. The Alphascreen plates were read on a Packard Fusion Alpha. Inhibitors were added to the assays thirty minutes prior to the addition of ATP. Inhibitors were added in aqueous DMSO, with DMSO concentrations never exceeding 1%.
# PDGFR β tyrosine kinase = target: T2, PDGFR β tyrosine kinase (Homo sapiens, UniProt P09619); assay: Alphascreen protein tyrosine kinase assay, PDGFRβ; format: biochemical
# T2 construct: purchased Upstate Cell Signalling Solutions, CA, USA 14-463
# T2 sequence (P09619 33-1106): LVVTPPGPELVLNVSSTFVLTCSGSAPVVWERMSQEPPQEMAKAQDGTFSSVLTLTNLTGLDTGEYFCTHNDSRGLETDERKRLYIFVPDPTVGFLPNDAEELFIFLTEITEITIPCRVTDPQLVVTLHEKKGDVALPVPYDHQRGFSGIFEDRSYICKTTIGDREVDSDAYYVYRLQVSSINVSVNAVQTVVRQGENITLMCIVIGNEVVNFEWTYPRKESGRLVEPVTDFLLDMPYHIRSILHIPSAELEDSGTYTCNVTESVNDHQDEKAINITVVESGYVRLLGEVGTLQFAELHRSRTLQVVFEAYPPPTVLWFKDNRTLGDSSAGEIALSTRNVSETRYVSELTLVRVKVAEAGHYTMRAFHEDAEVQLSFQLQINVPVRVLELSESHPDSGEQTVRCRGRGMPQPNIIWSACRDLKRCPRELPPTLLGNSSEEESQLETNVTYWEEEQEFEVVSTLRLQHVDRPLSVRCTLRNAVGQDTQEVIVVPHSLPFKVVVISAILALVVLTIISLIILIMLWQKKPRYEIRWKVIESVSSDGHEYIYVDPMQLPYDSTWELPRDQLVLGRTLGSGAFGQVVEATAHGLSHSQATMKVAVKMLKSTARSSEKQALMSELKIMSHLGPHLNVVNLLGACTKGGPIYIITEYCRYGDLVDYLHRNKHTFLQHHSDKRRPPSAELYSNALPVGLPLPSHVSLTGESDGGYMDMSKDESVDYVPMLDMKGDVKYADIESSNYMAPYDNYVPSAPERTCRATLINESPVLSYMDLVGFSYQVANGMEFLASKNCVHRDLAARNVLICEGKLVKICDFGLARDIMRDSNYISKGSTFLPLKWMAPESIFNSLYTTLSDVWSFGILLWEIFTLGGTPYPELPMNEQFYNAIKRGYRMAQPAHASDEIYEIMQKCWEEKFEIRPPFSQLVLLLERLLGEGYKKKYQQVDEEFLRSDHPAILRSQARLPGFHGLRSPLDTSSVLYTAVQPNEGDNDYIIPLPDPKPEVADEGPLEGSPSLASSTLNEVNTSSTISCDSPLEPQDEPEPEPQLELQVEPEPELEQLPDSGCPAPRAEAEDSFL
# cSRC(h) = target: T3, cSRC(h) (Homo sapiens, UniProt P12931); assay: KinaseProfiler assay (Upstate), cSRC; format: biochemical
# T3 construct: purchased Upstate Biotechnology (Dundee, UK), KinaseProfiler service
# T3 sequence (P12931 whole entry): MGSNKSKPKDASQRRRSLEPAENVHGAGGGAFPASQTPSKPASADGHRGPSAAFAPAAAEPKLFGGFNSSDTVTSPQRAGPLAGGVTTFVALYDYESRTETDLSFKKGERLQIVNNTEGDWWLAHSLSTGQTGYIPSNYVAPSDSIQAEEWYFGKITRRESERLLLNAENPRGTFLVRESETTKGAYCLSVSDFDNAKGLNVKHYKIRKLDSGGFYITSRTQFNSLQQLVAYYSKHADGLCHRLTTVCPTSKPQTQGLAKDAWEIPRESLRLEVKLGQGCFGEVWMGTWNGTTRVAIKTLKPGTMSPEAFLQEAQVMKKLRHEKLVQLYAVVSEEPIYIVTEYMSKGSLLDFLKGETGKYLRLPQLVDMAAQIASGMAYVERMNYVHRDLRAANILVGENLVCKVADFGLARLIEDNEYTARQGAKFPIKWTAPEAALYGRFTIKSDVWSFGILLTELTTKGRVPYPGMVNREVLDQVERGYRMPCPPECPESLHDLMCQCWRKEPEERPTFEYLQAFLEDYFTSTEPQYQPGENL
# Procedure: (§1) Further enzyme assays were conducted at Upstate Biotechnology (Dundee, UK) in the KinaseProfiler™ Assay system.
# (§2) The general protocol is as follows. All kinases are pre-diluted to a 10× working concentration prior to addition into the assay. The composition of the dilution buffer for the kinases is 20 mM MOPS pH 7.0, 1 mM EDTA, 0.1% β-mercaptoethanol, 0.01% Brij-35, 5% glycerol, 1 mg/ml BSA. All substrates are dissolved and diluted to working stocks in de-ionised water.
# Flt4(h) = target: T4, Flt4(h) (Homo sapiens, UniProt P35916); assay: KinaseProfiler assay (Upstate), Flt4; format: biochemical
# T4 construct: purchased Upstate Biotechnology (Dundee, UK), KinaseProfiler service
# T4 sequence (P35916 25-1363): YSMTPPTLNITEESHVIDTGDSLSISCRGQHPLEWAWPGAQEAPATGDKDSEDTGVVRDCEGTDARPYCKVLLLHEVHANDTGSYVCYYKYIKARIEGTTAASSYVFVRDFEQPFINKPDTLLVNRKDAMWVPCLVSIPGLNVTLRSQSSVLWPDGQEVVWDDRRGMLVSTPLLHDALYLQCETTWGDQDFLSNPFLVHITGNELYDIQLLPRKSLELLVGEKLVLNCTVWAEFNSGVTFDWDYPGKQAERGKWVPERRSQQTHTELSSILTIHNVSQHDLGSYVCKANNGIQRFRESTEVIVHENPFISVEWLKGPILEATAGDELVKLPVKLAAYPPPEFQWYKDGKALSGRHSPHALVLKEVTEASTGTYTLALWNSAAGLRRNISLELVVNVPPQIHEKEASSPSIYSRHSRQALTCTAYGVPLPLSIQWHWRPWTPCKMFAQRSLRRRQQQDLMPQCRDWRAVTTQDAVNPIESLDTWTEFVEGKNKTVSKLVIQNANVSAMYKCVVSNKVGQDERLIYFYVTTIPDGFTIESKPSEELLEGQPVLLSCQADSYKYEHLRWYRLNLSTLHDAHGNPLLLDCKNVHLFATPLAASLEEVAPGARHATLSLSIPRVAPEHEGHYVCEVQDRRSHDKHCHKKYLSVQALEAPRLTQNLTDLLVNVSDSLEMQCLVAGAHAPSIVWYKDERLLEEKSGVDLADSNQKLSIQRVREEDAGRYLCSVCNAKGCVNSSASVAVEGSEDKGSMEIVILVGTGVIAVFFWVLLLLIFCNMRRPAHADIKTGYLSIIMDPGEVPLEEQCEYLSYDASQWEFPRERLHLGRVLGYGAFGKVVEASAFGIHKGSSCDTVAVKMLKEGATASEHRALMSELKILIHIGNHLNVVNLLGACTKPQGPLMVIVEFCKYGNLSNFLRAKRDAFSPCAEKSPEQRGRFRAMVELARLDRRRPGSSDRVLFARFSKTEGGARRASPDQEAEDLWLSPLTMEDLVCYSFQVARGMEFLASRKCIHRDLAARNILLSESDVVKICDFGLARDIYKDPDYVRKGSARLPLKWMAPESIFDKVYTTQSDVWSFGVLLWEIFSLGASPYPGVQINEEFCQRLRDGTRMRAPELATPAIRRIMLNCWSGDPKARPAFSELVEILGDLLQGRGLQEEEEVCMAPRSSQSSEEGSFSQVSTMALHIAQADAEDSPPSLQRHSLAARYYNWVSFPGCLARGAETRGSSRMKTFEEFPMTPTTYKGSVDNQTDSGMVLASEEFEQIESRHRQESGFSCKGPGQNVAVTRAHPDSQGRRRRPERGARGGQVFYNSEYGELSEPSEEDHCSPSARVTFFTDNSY
# Procedure: as §1, §2
# PTK5(h) = target: T5, PTK5(h) (Homo sapiens, UniProt P42685); assay: KinaseProfiler assay (Upstate), PTK5; format: biochemical
# T5 construct: purchased Upstate Biotechnology (Dundee, UK), KinaseProfiler service
# T5 sequence (P42685 whole entry): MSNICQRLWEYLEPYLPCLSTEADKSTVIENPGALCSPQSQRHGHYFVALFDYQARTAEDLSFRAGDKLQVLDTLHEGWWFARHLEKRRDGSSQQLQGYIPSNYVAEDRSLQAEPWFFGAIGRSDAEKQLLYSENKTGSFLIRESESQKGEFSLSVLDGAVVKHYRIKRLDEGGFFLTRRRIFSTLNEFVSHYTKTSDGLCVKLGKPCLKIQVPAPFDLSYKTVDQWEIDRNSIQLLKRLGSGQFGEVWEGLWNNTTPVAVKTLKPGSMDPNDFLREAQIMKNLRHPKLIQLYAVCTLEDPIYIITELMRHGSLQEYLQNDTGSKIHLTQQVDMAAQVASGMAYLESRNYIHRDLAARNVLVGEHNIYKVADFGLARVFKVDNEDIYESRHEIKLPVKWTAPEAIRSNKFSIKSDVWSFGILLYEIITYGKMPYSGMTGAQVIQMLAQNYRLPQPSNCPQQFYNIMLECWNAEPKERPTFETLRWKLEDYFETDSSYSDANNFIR
# Procedure: as §1, §2
# Ret(h) = target: T6, Ret(h) (Homo sapiens, UniProt P07949); assay: KinaseProfiler assay (Upstate), Ret; format: biochemical
# T6 construct: purchased Upstate Biotechnology (Dundee, UK), KinaseProfiler service
# T6 sequence (P07949 29-1114): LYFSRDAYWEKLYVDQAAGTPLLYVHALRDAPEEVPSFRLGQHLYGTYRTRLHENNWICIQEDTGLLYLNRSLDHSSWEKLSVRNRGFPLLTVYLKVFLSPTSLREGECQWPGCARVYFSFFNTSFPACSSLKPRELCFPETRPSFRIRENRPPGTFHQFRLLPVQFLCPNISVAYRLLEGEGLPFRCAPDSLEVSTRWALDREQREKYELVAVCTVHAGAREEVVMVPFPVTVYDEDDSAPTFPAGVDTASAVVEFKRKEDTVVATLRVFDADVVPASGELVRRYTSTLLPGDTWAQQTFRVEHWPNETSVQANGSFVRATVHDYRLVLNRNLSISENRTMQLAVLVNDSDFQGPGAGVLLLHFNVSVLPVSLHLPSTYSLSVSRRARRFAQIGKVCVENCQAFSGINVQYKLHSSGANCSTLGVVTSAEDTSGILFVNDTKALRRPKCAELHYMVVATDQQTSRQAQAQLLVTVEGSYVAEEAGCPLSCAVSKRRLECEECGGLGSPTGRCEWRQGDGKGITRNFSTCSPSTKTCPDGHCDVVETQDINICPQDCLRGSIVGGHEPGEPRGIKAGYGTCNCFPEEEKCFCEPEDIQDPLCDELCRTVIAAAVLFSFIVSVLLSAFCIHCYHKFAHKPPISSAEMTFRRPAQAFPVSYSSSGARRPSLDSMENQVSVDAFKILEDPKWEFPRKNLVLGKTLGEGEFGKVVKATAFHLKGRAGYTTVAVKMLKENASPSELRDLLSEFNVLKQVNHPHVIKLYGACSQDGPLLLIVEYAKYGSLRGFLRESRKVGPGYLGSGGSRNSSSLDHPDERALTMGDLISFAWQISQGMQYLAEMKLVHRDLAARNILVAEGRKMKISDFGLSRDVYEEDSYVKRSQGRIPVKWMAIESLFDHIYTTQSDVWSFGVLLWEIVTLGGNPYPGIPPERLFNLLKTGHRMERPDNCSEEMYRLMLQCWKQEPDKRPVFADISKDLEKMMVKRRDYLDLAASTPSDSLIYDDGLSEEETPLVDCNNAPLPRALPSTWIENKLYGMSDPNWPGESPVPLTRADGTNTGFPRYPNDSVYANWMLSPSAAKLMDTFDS
# Procedure: as §1, §2
# In a final reaction volume of 25 μl, Ret (h) (5-10 mU) is incubated with 8 mM MOPS pH 7.0, 0.2 mM EDTA, 250 μM […], 10 mM MgAcetate and [γ-33P-ATP] (specific activity approx. 500 cpm/pmol, concentration as required). The reaction is initiated by the addition of the MgATP mix. After incubation for 40 minutes at room temperature, the reaction is stopped by the addition of 5 μl of a 3% phosphoric acid solution. 10 μl of the reaction is then spotted onto a P30 filtermat and washed three times for 5 minutes in 75 mM phosphoric acid and once in methanol prior to drying and scintillation counting.
# mNFS-60 = assay: Cellular assay (Alamar Blue), mNFS-60 with human M-CSF; format: cell-based; conditions: human M-CSF at 20 ng/ml, 72 hr
# Procedure: Cells for the assays were prepared by harvesting cells from culture, and then diluting them in the appropriate growth medium to between 40,000 cell/mL and 600,000 cell/mL, depending on the cell line.
# The compounds to be tested were added (104, 10× final concentration) to a flat bottomed 96-well plate. The cellular suspension (80 μL per well) was added, and one hour later the growth factor was added (human M-CSF at 20 ng/ml for mNFS-60, mouse IL-3 at 5 ng/ml for Baf3-WT). The plate was then incubated for 72 hr at 37° C., 5% CO2. Alamar Blue (10^4 per well) was added and the plates returned to the incubator for a further 4-8 hours.
# The plates were then read using a fluorescence plate reader at excitation 544 nm and emission 590 nm.
smiles,measurement,setting,value
Cc1cccc(C(=O)Nc2cccc([C@H](C)Nc3cncc(-c4ccc(S(N)(=O)=O)cc4)n3)c2)c1 [Compound 77],IC50,[1],< 0.1 µM
same,IC50,PDGFR β tyrosine kinase,< 1 µM
same,inhibition at 0.1 µM,cSRC(h),23%
same,inhibition at 1 µM,cSRC(h),74%
same,inhibition at 0.1 µM,Flt4(h),98%
same,inhibition at 1 µM,Flt4(h),97%
same,inhibition at 0.1 µM,PTK5(h),91%
same,inhibition at 1 µM,PTK5(h),99%
same,inhibition at 0.1 µM,Ret(h),22%
same,inhibition at 1 µM,Ret(h),67%
same,IC50,mNFS-60,< 0.2 µM
"C[C@H](Nc1cncc(Cl)n1)c1cccc(NC(=O)c2cccc(C(F)(F)F)c2)c1 [Compound 114, (S)—N-(3-(1-(6-chloropyrazin-2-ylamino)ethyl)phenyl)-3-(trifluoromethyl)benzamide]",IC50,PDGFR β tyrosine kinase,< 0.1 µM
same,inhibition at 0.1 µM,cSRC(h),24%
same,inhibition at 1 µM,cSRC(h),80%
same,inhibition at 0.1 µM,Flt4(h),92%
same,inhibition at 1 µM,Flt4(h),99%
same,inhibition at 0.1 µM,PTK5(h),98%
same,inhibition at 1 µM,PTK5(h),100%
same,inhibition at 0.1 µM,Ret(h),66%
same,inhibition at 1 µM,Ret(h),95%
same,IC50,mNFS-60,< 1 µM
Cc1cccc(C(=O)Nc2cccc([C@H](C)Nc3cncc(-c4ccc(N5CCN(C)CC5)cc4)n3)c2)c1 [Compound 129],IC50,[1],< 0.1 µM
same,IC50,PDGFR β tyrosine kinase,< 0.1 µM
same,inhibition at 0.1 µM,cSRC(h),38%
same,inhibition at 1 µM,cSRC(h),85%
same,inhibition at 0.1 µM,Flt4(h),100%
same,inhibition at 1 µM,Flt4(h),100%
same,inhibition at 0.1 µM,PTK5(h),99%
same,inhibition at 1 µM,PTK5(h),100%
same,inhibition at 0.1 µM,Ret(h),19%
same,inhibition at 1 µM,Ret(h),75%
same,IC50,mNFS-60,< 0.2 µM
"Cc1cccc(C(=O)Nc2cccc([C@H](C)Nc3cncc(C(N)=O)n3)c2)c1 [Compound 133, (S)-6-(1-(3-(3-methylbenzamido)phenyl)ethylamino)pyrazine-2-carboxamide]",IC50,[1],< 0.1 µM
same,IC50,PDGFR β tyrosine kinase,< 0.1 µM
same,inhibition at 0.1 µM,cSRC(h),1%
same,inhibition at 1 µM,cSRC(h),14%
same,inhibition at 0.1 µM,Flt4(h),95%
same,inhibition at 1 µM,Flt4(h),100%
same,inhibition at 0.1 µM,PTK5(h),80%
same,inhibition at 1 µM,PTK5(h),98%
same,inhibition at 0.1 µM,Ret(h),1%
same,inhibition at 1 µM,Ret(h),36%
same,IC50,mNFS-60,< 0.2 µM
"Cc1cccc(C(=O)Nc2cccc([C@H](C)Nc3cncc(-n4ccnc4)n3)c2)c1 [Compound 143, (S)—N-(3-(1-(6-(1H-imidazol-1-yl)pyrazin-2-ylamino)ethyl)phenyl)-3-methylbenzamide]",IC50,[1],< 0.1 µM
same,IC50,PDGFR β tyrosine kinase,< 0.1 µM
same,inhibition at 0.1 µM,cSRC(h),14%
same,inhibition at 1 µM,cSRC(h),65%
same,inhibition at 0.1 µM,Flt4(h),95%
same,inhibition at 1 µM,Flt4(h),99%
same,inhibition at 0.1 µM,PTK5(h),88%
same,inhibition at 1 µM,PTK5(h),96%
same,inhibition at 0.1 µM,Ret(h),8%
same,inhibition at 1 µM,Ret(h),58%
same,IC50,mNFS-60,< 0.2 µM
Cc1cccc(C(=O)Nc2cccc([C@H](C)Nc3cncc(-c4cccc(N5CCOCC5)c4)n3)c2)c1 [Compound 147],IC50,[1],< 0.1 µM
same,IC50,PDGFR β tyrosine kinase,< 0.1 µM
same,inhibition at 0.1 µM,cSRC(h),45%
same,inhibition at 1 µM,cSRC(h),87%
same,inhibition at 0.1 µM,Flt4(h),100%
same,inhibition at 1 µM,Flt4(h),99%
same,inhibition at 0.1 µM,PTK5(h),94%
same,inhibition at 1 µM,PTK5(h),100%
same,inhibition at 0.1 µM,Ret(h),68%
same,inhibition at 1 µM,Ret(h),92%
same,IC50,mNFS-60,< 0.2 µM
C[C@H](Nc1cncc(-c2ccc(N3CCN(C)CC3)cc2)n1)c1cccc(NC(=O)c2cccc(C(F)(F)F)c2)c1 [Compound 148],IC50,[1],< 0.1 µM
same,IC50,PDGFR β tyrosine kinase,< 0.1 µM
same,inhibition at 0.1 µM,cSRC(h),86%
same,inhibition at 1 µM,cSRC(h),96%
same,inhibition at 0.1 µM,Flt4(h),96%
same,inhibition at 1 µM,Flt4(h),99%
same,inhibition at 0.1 µM,PTK5(h),99%
same,inhibition at 1 µM,PTK5(h),100%
same,inhibition at 0.1 µM,Ret(h),89%
same,inhibition at 1 µM,Ret(h),96%
same,IC50,mNFS-60,< 0.2 µM
C[C@H](Nc1cncc(-c2cccc(N3CCOCC3)c2)n1)c1cccc(NC(=O)c2cccc(C(F)(F)F)c2)c1 [Compound 149],IC50,[1],< 0.1 µM
same,IC50,PDGFR β tyrosine kinase,< 0.1 µM
same,inhibition at 0.1 µM,cSRC(h),69%
same,inhibition at 1 µM,cSRC(h),96%
same,inhibition at 0.1 µM,Flt4(h),96%
same,inhibition at 1 µM,Flt4(h),99%
same,inhibition at 0.1 µM,PTK5(h),95%
same,inhibition at 1 µM,PTK5(h),100%
same,inhibition at 0.1 µM,Ret(h),89%
same,inhibition at 1 µM,Ret(h),96%
same,IC50,mNFS-60,< 1 µM
Cc1cccc(C(=O)Nc2ccc(C)c([C@H](C)Nc3cncc(Cl)n3)c2)c1 [Compound 168],inhibition at 0.1 µM,cSRC(h),53%
same,inhibition at 1 µM,cSRC(h),95%
same,inhibition at 0.1 µM,Flt4(h),96%
same,inhibition at 1 µM,Flt4(h),97%
same,inhibition at 0.1 µM,PTK5(h),100%
same,inhibition at 1 µM,PTK5(h),100%
same,inhibition at 0.1 µM,Ret(h),39%
same,inhibition at 1 µM,Ret(h),95%
